The results in this text go back to patent US11767286B2, “Phenylpropionate compound, preparation method for same, and applications thereof” (SUZHOU PHARMAVAN CO., LTD, priority 2017, dated 2023).

Data set [1] concerns SD rat model of focal ischemia-reperfusion. The data set is described as follows: Dose-effect relationship in SD rat model of focal ischemia-reperfusion (MCAO). It counts as in vivo, SD rats. The conditions noted are these: given 2 h after reperfusion, mean ± standard error; for Score of Symptoms of Neurological Deficits: 48 h, modified Bederson 5-point scale; for Infarction area: evaluated after 48 h. As to the method: In this example, phenylpropionate compounds were studied for dose-effect relationship, with D-bornyl ferulate (administrated at 4.0 mg/kg) and D-tanshinol borneol ester (administrated at 4.0 mg/kg) as positive control drugs. Structures of D-bornyl ferulate (Patent Application No.: 201510243181.5) and D-tanshinol borneol ester compounds are as follows:
Trial method: A cerebral ischemia reperfusion model of middle cerebral artery occlusion (MCAO) was prepared by an internal carotid artery suture method. An animal was anesthetized with 10% chloral hydrate (3.6 mL/kg) and then fixed on an operating table in a supine position. Its skin was disinfected, and a midline incision was made on the neck. The right common carotid artery, external carotid artery, and internal carotid artery were separated, the vagus nerve was gently striped off, and the external carotid artery was ligated and cut. The common carotid artery was clamped at the proximal end. […] The nylon thread was advanced through the bifurcation of the common carotid artery into the internal carotid artery, and then was slowly inserted until there was slight resistance (about 20 mm from the bifurcation) to block all the blood supply to the middle cerebral artery. 2 h after cerebral ischemia, the nylon thread was gently pulled out to restore blood supply for reperfusion, and the neck skin was sutured and disinfected. The animal was put back in a cage and raised. During the modeling operation, animals with abnormal conditions due to anesthesia, surgery, etc. were excluded, and successfully modeled animals were randomly grouped. Schemes were set according to different trial doses, and drug treatment was given 2 h after cerebral ischemia-reperfusion. Death conditions were recorded every day after the surgery, and indicators were evaluated after 48 h. In the whole trial process, general conditions were observed, mainly including: death, coma, breathing, urine and feces traits, hair colors, mental status, vomiting and vomitus, bleeding, convulsion, spasm, etc. Abnormal animals due to unexpected factors were excluded. Finally, unblinding was conducted by a person who made blind trials.
Evaluated indicator: (1) Evaluation of symptoms of neurological deficits: The symptoms of neurological deficits were evaluated by using a modified Bederson 5-point scale. A single-blind method was used for evaluating the symptoms of neurological deficits in rats with brain trauma. That is, a trial designer marked animals in accordance with groups, and an experimenter who scored the symptoms of neurological deficits had no knowledge of how the animals were grouped. After scoring was completed, the scorer submitted scoring results for various marks to the designer, and the designer performed unblinding to obtain scores of animals in each trial group. (2) Measurement of cerebral infarction area: A method reported in the literature was used. An animal was anesthetized with 10% chloral hydrate and decapitated to collect brain. The olfactory bulb, cerebellum and lower brain stem were removed. Blood stains on the surface of the brain were rinsed with normal saline, the residual water stains on the surface were absorbed, and the brain was placed at −80° C. for 7 min. After the brain was taken out, a coronal section was immediately made at downwards and vertical to the sight intersection plane, and brain slices were made every 2 mm backwards. Brain slices were placed in a TTC (20 g/L) dye solution prepared with 0.9% normal saline, and incubated at 37° C. for 90 min. Normal brain tissues were stained deep red, and ischemic brain tissues were pale-white. After rinsed with normal saline, the brain sections were quickly arranged in order from front to back, the residual water stains on the surface were absorbed to dryness, and pictures were taken. Image analysis software was used for statistics on the pictures. […]

Data set [2] relates to rats with acute cerebral ischemia-reperfusion. Nature of the data set: Blood viscosity of rats with acute cerebral ischemia-reperfusion (blood viscometer). It counts as in vivo, SD rats. Further details: unit not given here. The conditions noted are these: 4 mg/kg iv 2 h after reperfusion; blood 4 h after administration; n=5. As to the method:
(§1) Trial method: Effects on inflammatory factors and blood viscosity of rats with acute cerebral ischemia-reperfusion: 70 Male SD rats underwent an MACO surgery by a suture method, and after the surgery, alive rats were randomly grouped (into 7 groups, the number of successful animals in each group was guaranteed to be 6 to 8). Blood perfusion was recovered 2 h after MCAO, and corresponding trial medicaments were intravenously injected 2 h after blood reperfusion. 4 hours after the administration, blood was collected and the rats were sacrificed to take out brain tissues. The brain tissues and part of the blood were centrifuged to collect serum which was detected for inflammatory factors, and part of the blood was detected for blood viscosity by using a blood viscometer. Detected indicators: cerebral infarction area; inflammatory factors IL-1β and TNF-α; and blood viscosity.
Table 2 lists results of effects of phenylpropionate compounds (4 mg/kg) on blood viscosity of rats (n=5).

A further data set has as its system TNF-α. Nature of the data set: Inflammatory factor TNF-α in blood and brain tissues of rats with acute cerebral ischemia-reperfusion. The conditions noted are these: 4 mg/kg iv 2 h after reperfusion; 4 h after administration; n=5. It counts as in vivo, SD rats. As to the method: as §1
(§2) Table 3 lists results of effects of phenylpropionate compounds (4 mg/kg) on inflammatory factors in blood and brain tissues of rats (n=5).

The next data set deals with IL-1β. The data set is described as follows: Inflammatory factor IL-1β in blood and brain tissues of rats with acute cerebral ischemia-reperfusion. Particulars: 4 mg/kg iv 2 h after reperfusion; 4 h after administration; n=5. It counts as in vivo, SD rats. As to the method: as §1, §2
The nature of data set [3]: Distribution in brain: plasma and intracerebral concentrations after intravenous injection. It counts as in vivo. The conditions noted are these: both sexes, rat, rats, 4 mg/kg iv; for Kp at 10 min / Kp at 60 min / Kp at 180 min: brain/plasma, read-out: Brain/Blood Concentration Ratio. As to the method: In this example, Compounds A to E, D-bornyl ferulate, and D-tanshinol borneol ester were measured for distribution in brain. Structures of D-bornyl ferulate (Patent Application No.: 201510243181.5) and D-tanshinol borneol ester compounds are as follows:
Method for testing distribution in brain: 42 rats with a weight range of 200±20 g were taken. The rats were randomly divided into 7 groups, with 6 rats per group, half male and half female. Rats were fasted with free access to water for 12 h and then intravenously injected with 4 mg/kg of a compound. Rats in the 3 groups were sacrificed through femoral artery bleeding and collected for blood 10 min, 60 min, 180 min after administration, respectively. Brains were taken out, 0.2 g was weighted, and 1 mL of pure water was added for homogenizing. The blood samples and brain homogenate samples were stored at −20° C.
Distribution of Compounds A to E, and D-bornyl ferulate and D-tanshinol borneol ester compounds in brain: Data on concentrations of Compounds A to E, D-bornyl ferulate, and D-tanshinol borneol ester in plasma and intracerebral in rats intravenously injected with 4 mg/kg of Compounds A to E, D-bornyl ferulate, and D-tanshinol borneol ester are listed in Table 9.

The mark [4] stands for this setting: brain, read-out: Mean Intracerebral Concentration.
[5] abbreviates: plasma, read-out: Mean Plasma Concentration.

Read-outs that look alike come from different tables or passages of the source.

In the case of `COc1cc(CCC(=O)O[C@H]2C[C@H]3CC[C@]2(C)C3(C)C)cc(F)c1O` [Compound A], in data set [1] (2.0 mg/kg), the “Score of Symptoms of Neurological Deficits” value is listed as 2.05 ± 0.20 and the Infarction area came out at 24.73 ± 2.63 %. In data set [1] (4.0 mg/kg), the “Score of Symptoms of Neurological Deficits” value came to 1.94 ± 0.19 and the Infarction area was 20.25 ± 2.53 %. Further, in data set [1] (8.0 mg/kg), the “Score of Symptoms of Neurological Deficits” value was determined as 1.75 ± 0.21 and the Infarction area was found to be 18.38 ± 2.74 %. Moreover, in data set [2], the “Blood viscosity, High Shear” value was determined as 2.56 ± 0.057 and the “Blood viscosity, Low Shear” value is on record as 13.2 ± 0.535. For the same compound, in the data set on TNF-α, the TNF-α turned out to be 615 ± 42.9 ng/L. The compound also showed an IL-1β in the data set with IL-1β of 53.8 ± 6.4 ng/L. For the same compound, in data set [3], the Kp at 10 min is 2.6, the Kp at 60 min was 5.7 and the Kp at 180 min is 3.2. Besides, in data set [3] (setting [4]), the concentration at 10 min was 2640 ± 517 ng/g, the concentration at 60 min worked out at 1420 ± 309 ng/g and the concentration at 180 min turned out to be 311 ± 115 ng/g. In data set [3] (setting [5]), the concentration at 10 min stood at 1020 ± 192 ng/mL, the concentration at 60 min came out at 252 ± 76.5 ng/mL and the concentration at 180 min was 97.3 ± 22.7 ng/mL.

As for `COc1cc(CCC(=O)O[C@H]2C[C@H]3CC[C@]2(C)C3(C)C)cc(OC)c1O` [Compound C], in data set [1] (2.0 mg/kg), the “Score of Symptoms of Neurological Deficits” value was determined as 2.45 ± 0.13 and the Infarction area came to 22.24 ± 2.84 %. For the same compound, in data set [1] (4.0 mg/kg), the “Score of Symptoms of Neurological Deficits” value stood at 2.18 ± 0.23 and the Infarction area came out at 21.04 ± 2.14 %. Further, in data set [1] (8.0 mg/kg), the “Score of Symptoms of Neurological Deficits” value was 1.98 ± 0.14 and the Infarction area is 19.32 ± 3.53 %. Besides, in data set [2], the “Blood viscosity, High Shear” value was found to be 2.70 ± 0.982 and the “Blood viscosity, Low Shear” value is recorded as 13.9 ± 1.014. For the same compound, the TNF-α with TNF-α amounted to 634 ± 25.1 ng/L. This compound also registered an IL-1β in the data set with IL-1β of 59.3 ± 8.7 ng/L. In data set [3], the Kp at 10 min worked out at 2.9, the Kp at 60 min was 11 and the Kp at 180 min came out at 2. In data set [3] (setting [4]), the concentration at 10 min was 2630 ± 167 ng/g, the concentration at 60 min stood at 1870 ± 406 ng/g and the concentration at 180 min stood at 188 ± 51.9 ng/g. Also, in data set [3] (setting [5]), the concentration at 10 min stood at 906 ± 145 ng/mL, the concentration at 60 min worked out at 160 ± 49.1 ng/mL and the concentration at 180 min was determined as 92.2 ± 35.5 ng/mL.
